Data as given in US20140242609A1, “Diagnosis and treatment of kidney stones, methods and compositions therefor” (Washington University, priority 2013, published 2014).
Blank lines part the entries; values can stand above or below the molecule they belong to.

Key:
[1] = 24 hr urinalysis in metabolic cages, plasma and urine electrolytes; type: in vivo, mouse
Procedure: Age (9-10 weeks old) and sex (male) matched wild-type and CLDN14 KO mice were housed individually in metabolic cages (Harvard Apparatus) with free access to water and food for 24 hr. Urine was collected under mineral oil. The plasma and urine Ca^++ and Mg^2+ levels were determined with atomic flame absorption spectrophotometer (PerkinElmer). The plasma (P) and urine (U) electrolyte levels were determined with the Roche Cobas clinical analyzer (Roche Diagnostics). […] The fractional excretion of electrolytes was calculated using the following equation: FEion=V×Uion/(GFR×Pion), where GFR was calculated according to the clearance rate of creatinine (GFR=V×Ucreatinine/Pcreatinine).
Mice were housed individually in metabolic cages (Harvard Apparatus) with free access to water and food for 24 hr. Urine was collected under mineral oil. The plasma and urine Ca^++ and Mg^++ levels were determined with atomic flame absorption spectrophotometer (PerkinElmer). The creatinine levels were measured with an enzymatic method that was independent of plasma chromogens.

CLDN14 mRNA = CLDN14 mRNA levels in primary cultures / freshly isolated mouse TALH cells (real-time PCR); type: cell-based; settings: 0.01 μM; versus vehicle
Procedure: (§1) An immunomagnetic separation method was used to isolate the TAL cells from the mouse kidney (Hou et al., 2009). Antibodies against the TAL cell specific surface antigen, Tamm-Horsfall protein (THP), were coated onto the paramagnetic polystyrene beads (Dynabeads M-280; Dynal), allowing immunoprecipitation of the TAL cells from collagenase digested mouse kidneys. The isolated cells were plated in DMEM medium supplemented with 10% FBS, penicillin/streptomycin, and 1 mM sodium pyruvate for 16 hours, followed by immediate transfection with NFAT or antagomirs.
(§2) Total RNA including microRNA was extracted using Trizol (Invitrogen). Cellular mRNA was reverse transcribed using the Superscript-III kit (Invitrogen), followed by real-time PCR amplification using SYBR Green PCR Master Mix (Bio-Rad) and Eppendorf Realplex2S system. The design of claudin-14 primers was described above. The design of pri-miRNA primers was according to Ma et al., (2010). Results were expressed as 2^−ΔCt values with ΔCT=Ctgene−Ctβ-actin.
as §1, with “TALH” for “TAL”, “kidney. (Gong Y,” for “kidney (Hou”, “al. 2012 and Gong Y, et al. 2013)” for “al., 2009).”, “protein,” for “protein (THP),”, “treatment.” for “transfection with NFAT or antagomirs.”
Total RNA including microRNA was extracted using Trizol (Invitrogen). Cellular mRNA was reverse transcribed using the Superscript-III kit (Invitrogen), followed by real-time PCR amplification using SYBR Green PCR Master Mix (Bio-Rad) and Eppendorf Realplex2S system. […] Results were expressed as 2^−ΔCt values with ΔCT=Ctgene−Ctβ-actin. […]
Total RNA including microRNA was extracted using Trizol (Invitrogen). […] Results were expressed as 2^−ΔCt values with ΔCT=Ctgene−Ctβ-actin. […]

claudin-14 mRNA = claudin-14 mRNA levels in mouse kidney after systemic treatment (real-time PCR); type: in vivo; settings: 1 mg/kg BW−1; 4 hr
Procedure: NPS2143 and cinacalcet (Table 1) were dissolved in vehicle—20% (w/v) (2-Hydroxypropyl)-β-cyclodextrin solution and fed to mice with gavage syringe. Cyclosporin-A (Sandimmune; Table 1) was diluted in 0.9% saline and I.P. injected to animals. Control animals received vehicle injection (13% wiv Cremophor EL and 32.9% ethanol). For dietary Ca^2+ manipulation, animals were fed with the following diets for six consecutive days: basal diet: 0.61% Ca^2+ (TestDiet #5755); low Ca^2+ diet: 0 Ca^++ (TestDiet #5855); high Ca^2+ diet: 5% Ca^2+ (TestDiet #5AVB). All animals had free access to water and were housed under a 12 hr light cycle. Blood samples were taken by cardiac puncture rapidly after initiation of terminal anesthesia and centrifuged at 4° C. for 10 min. Kidney were dissected out and immediately frozen at −80° C.
as §2
SAHA and TsA were dissolved in 5% (w/v) ethanol/0.9% saline solution and fed to mice with gavage syringe. Furosemide was dissolved in 50% (w/v) DMSO/0.9% saline solution and I.P. injected to animals. All animals had free access to water and were housed under a 12 hr light cycle. Blood samples were taken by cardiac puncture rapidly after initiation of terminal anesthesia and centrifuged at 4° C. for 10 min. Kidney were dissected out and immediately frozen at −80° C.
Total RNA including microRNA was extracted using Trizol (Invitrogen). Cellular mRNA was reverse transcribed using the Superscript-III kit (Invitrogen), followed by real-time PCR amplification using SYBR Green PCR Master Mix (Bio-Rad) and Eppendorf Realplex2S system. The design of claudin-14 primers was described before by Gong et al., 2012. The design of pri-miRNA primers and ChIP primers was according to Gong et al., 2013. Results were expressed as 2^−ΔCt values with ΔCT=Ctgene−Ctβ-actin. […]
NPS2143 and cinacalcet (Table 9) were dissolved in vehicle −20% (w/v) (2-Hydroxypropyl)-β-cyclodextrin solution and fed to mice with gavage syringe. Cyclosporin-A (Sandimmune; Table 9) was diluted in 0.9% saline and I.P. injected to animals. Control animals received CNI vehicle injection (13% wiv Cremophor EL and 32.9% ethanol). FK506 was dissolved in CNI vehicle, diluted in 0.9% saline and I.P. injected to animals. For dietary Ca^+ manipulation, animals were fed with the following diets for six consecutive days: basal diet: 0.610% Ca^++ (TestDiet #5755); low Ca^++ diet: 0 Ca^++ (TestDiet #5855); high Ca^++ diet: 5% Ca^+ (TestDiet #5AVB). All animals had free access to water and were housed under a 12 hr light cycle. Blood samples were taken by cardiac puncture rapidly after initiation of terminal anesthesia and centrifuged at 4° C. for 10 min. Kidney were dissected out and immediately frozen at −80° C.
Total RNA including microRNA was extracted using Trizol (Invitrogen). Cellular mRNA was reverse transcribed using the Superscript-III kit (Invitrogen), followed by real-time PCR amplification using SYBR Green PCR Master Mix (Bio-Rad) and Eppendorf Realplex2S system. The design of claudin-14 primers was described before by Gong. Y., et al., 2012. The design of pri-miRNA primers was according to Ma. L., et al., 2010. Results were expressed as 2^−ΔCt values with ΔCT=Ctgene−Ctβ-actin.

CLDN14 = CLDN14 expression in cultured MKTAL cells; type: cell-based, mouse; settings: 1 nM, 10 nM and 100 nM
human CLDN16 (AF152101) = biological target: T1, human CLDN16 (AF152101) (human, UniProt Q9Y5I7 1-235); experiment: cell-based or functional assay
T1 sequence (looked up): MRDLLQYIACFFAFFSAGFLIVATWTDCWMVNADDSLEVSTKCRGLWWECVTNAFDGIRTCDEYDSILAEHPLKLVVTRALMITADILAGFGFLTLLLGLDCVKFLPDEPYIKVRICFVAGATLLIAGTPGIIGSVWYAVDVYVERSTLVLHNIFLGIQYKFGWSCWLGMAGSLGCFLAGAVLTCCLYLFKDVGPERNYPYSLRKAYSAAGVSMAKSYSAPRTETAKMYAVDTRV

[2] = WT pre-treated with furosemide 40 mg/kg BW−1 per day, Veh + Furo = furosemide alone

Molecule: NS(=O)(=O)c1cc(C(=O)O)c(NCc2ccco2)cc1Cl [Furo, Furosemide]
ECa [1, 2]: 2.84 ± 0.78 ug/24 hr · g
EMg [1, 2]: 13.24 ± 3.13 ug/24 hr · g
FECa [1, 2]: 1.89 ± 0.67 %
FEMg [1, 2]: 32.83 ± 1.30 %
PCa [1, 2]: 10.61 ± 0.43 mg/dL
PMg [1, 2]: 2.33 ± 0.11 mg/dL

Molecule: CC(/C=C/C(=O)NO)=C\[C@@H](C)C(=O)c1ccc(N(C)C)cc1 [TsA, Trichostatin A]
CLDN14 mRNA levels, reduction (CLDN14 mRNA): 64%
effects on renal Ca++ and Mg++ metabolism (compared with SAHA) ([1]; 1 mg/kg BW−1 per day): exerted similar effects
CLDN14 mRNA levels in the kidney, decrease (claudin-14 mRNA): 71%

B1: PTH: human recombinant PTH (1-84; Sigma) (protein, UniProt P01270 32-115, looked up)
Parathyroid hormone: SVSEIQLMHNLGKHLNSMERVEWLRKKLQDVHNFVALGAPLAPRDAGSQRPRKKEDNVLVESHEKSLGEADKADVNVLTKAKSQ
modifications: Parathyroid hormone
CLDN14 gene expression (CLDN14): no significant effect

fold decrease of absolute Na+ permeability, CLDN14+16+19 versus CLDN16+19 (human CLDN16 (AF152101)): 2.43 fold
fold reduction of PNa by CLDN14 in CLDN16 cell background (human CLDN16 (AF152101)): 2.03 fold
B2: mouse CLDN14 (AF314089) (other, UniProt Q9Z0S3 1-239, looked up)
chain: MASTAVQLLGFLLSFLGMVGTLITTILPHWRRTAHVGTNILTAVSYLKGLWMECVWHSTGIYQCQIYRSLLALPRDLQAARALMVISCLLSGMACACAVVGMKCTRCAKGTPAKTTFAVLGGALFLLAGLLCMVAVSWTTNDVVQNFYNPLLPSGMKFEIGQALYLGFISSSLSLIGGTLLCLSCQDEAPYRPYPPQSRAGATTTATAPAYRPPAAYKDNRAPSVTSAAHSGYRLNDYV
